According to patent US20230000876A1, “TREATING CANCERS WITH A CYCLIN-DEPENDENT KINASE INHIBITOR” (Nuvation Bio Inc., priority 2021, published 2023):
Read-outs that look alike come from different tables or passages of the source.

Assay: Pharmacokinetics and brain distribution after single oral dose, rats
Assay type: in vivo, male Sprague-Dawley rats
Details: for Kp at 6 h / concentration at 6 h / Cmax / Tmax / concentration at 1 h / concentration at 2 h / concentration at 4 h / concentration at 8 h / concentration at 12 h / AUC(0-inf) / half-life / concentration at 24 h: male, Sprague-Dawley, rat; for Kp at 6 h: po
Description: The pharmacokinetics and brain distribution in maleCD1 mice and Sprague-Dawley rats following a single oral (PO) dose was evaluated. The compound of formula (I) was administered once at 10 mg/kg to mice and at 1, 10, 30, and 100 mg/kg to rats. All doses, compound of formula (I) concentrations, and derived PK parameters are expressed as the free base of the compound of formula (I).
The in-life portion of these studies was performed by Alliance Pharma (Malvern, Pa.) according to Protocols 200107-02 (mice) and 1910158-02 (rats). Animals were assigned randomly to the dose groups and were fasted 12 hours prior to dosing. Water was available ad libitum. The compound of formula (I) (as an HCl salt) was given to male CD1 mice at 10 mg/kg single PO dose, while in Sprague-Dawley rats, the doses were 1, 10, 30, and 100 mg/kg. In both studies, the compound of formula (I) was formulated in 0.5% hydroxypropyl methylcellulose (HPMC)/0.2% Tween 80 and the dosing volume was 5 mL/kg for all dose groups.
Whole blood was collected at 2, 4, 6, and 12 hours post dose from mice and predose and 1, 2, 4, 8, 12, and 24 hours post dose from rats into tubes containing dipotassium ethylenediaminetetraacetic acid (K2EDTA). Blood was obtained from 3 mice and 4 rats per time-point per dose level. The blood samples were processed into plasma analyzed at Alliance Pharma using the method as described below.
The brain tissue was collected from mice at 2, 4, 6, and 12 hours post dose and was collected from rats at 6 hours post dose given 1, 10, 30, or 100 mg/kg of the compound of formula (I). Brain tissue was obtained from 3 mice per time-point at the 10 mg/kg dose level and 4 rats per dose level at the 6-hour post dose time-point.
Brain tissue was rinsed by phosphate-buffered saline (PBS) buffer immediately after harvest, weighed, and mixed with solvent (MeOH:H2O [volume over volume of 20:80]) with a ratio of tissue to solvent of 1:4 (weight over volume). […] After homogenization, the homogenate was aliquoted out for sample analysis.
The concentrations of the compound of formula (I) in the plasma and brain homogenate were determined versus a calibration curve prepared in plasma and naïve brain homogenate, respectively. Samples were deproteinized with acetonitrile containing tolbutamide as internal standard. After centrifugation, the supernatants were analyzed by liquid chromatography with tandem mass spectrometry (LC-MS/MS). Chromatography was performed with a Zorbax SB-C18 (50×2.1 mm, […]) column under gradient conditions described in Table 22. Mobile Phase A (0.1% formic acid [FA] in water) and Mobile Phase B (0.1% FA in acetonitrile) were delivered as a flow rate of 0.8 mL/min. LC-MS/MS was performed using a positive TurboIonSpray® interface on a SciexAPI 4000 and multiple-reaction monitoring (MRM) over a concentration range of 1 ng/mL to 1000 (rats) or 2000 (mice) ng/mL for the plasma and brain homogenate samples.
The mean plasma concentration-time data of the compound of formula (I) was used to determine the pharmacokineticparameters by standard noncompartmental methods using Phoenix® WinNonlin (version 8.2.0; Certara, Princeton, N.J.). Graphs were plotted in Prism® (version 2.3.0; GraphPad, San Diego, Calif.). Concentrations were rounded to 3 significant figures.

[1] = plasma, single PO 1 mg/kg (HCl salt, as free base)
[2] = plasma, single PO 10 mg/kg (HCl salt, as free base)
[3] = plasma, single PO 30 mg/kg (HCl salt, as free base)
[4] = plasma, single PO 100 mg/kg (HCl salt, as free base)

Which Kp at 6 h (brain, 1 mg/kg, single PO 1 mg/kg, 6 h, read-out: Brain:Plasma Ratio) does the source give for CC(C)N1CCOc2c(F)cc(-c3nc(Nc4ccc(C5CCN(C)CC5)cn4)ncc3F)cc21 [Compound (I), 5-fluoro-4-(8-fluoro-4-isopropyl-3,4-dihydro-2H-benzo[b][1,4]oxazin-6-yl)-N-(5-(1-methylpiperidin-4-yl)pyridin-2-yl)pyrimidin-2-amine] here?
The Kp at 6 h was 6.3.

And the Kp at 6 h (brain, 10 mg/kg, single PO 10 mg/kg, 6 h, read-out: Brain:Plasma Ratio)?
Its Kp at 6 h is 6.1.

And the Kp at 6 h (brain, 30 mg/kg, single PO 30 mg/kg, 6 h, read-out: Brain:Plasma Ratio)?
Its Kp at 6 h is 11.

What about the Kp at 6 h (brain, 100 mg/kg, 6 hours post-dose, each dose level (1, 10, 30, 100 mg/kg PO), read-out: Brain-to-plasma concentration ratio) of the same compound?
Its Kp at 6 h is > 6.

And the Kp at 6 h (brain, 100 mg/kg, single PO 100 mg/kg, 6 h, read-out: Brain:Plasma Ratio)?
The Kp at 6 h was 12.

What about the concentration at 6 h (brain, single PO 1 mg/kg, 6 h, read-out: Brain Conc) of the same compound?
Its concentration at 6 h is 58.9 ng/mL.

What about the concentration at 6 h (brain, single PO 10 mg/kg, 6 h, read-out: Brain Conc) of the same compound?
Its concentration at 6 h is 548 ng/mL.

What about the concentration at 6 h (brain, single PO 30 mg/kg, 6 h, read-out: Brain Conc) of the same compound?
The concentration at 6 h was 1970 ng/mL.

And the concentration at 6 h (brain, single PO 100 mg/kg, 6 h, read-out: Brain Conc)?
Its concentration at 6 h is 2800 ng/mL.

What about the Cmax (plasma, single PO 1 mg/kg) of the same compound?
The Cmax was 9.37 ng/mL.

And the Tmax (plasma, single PO 1 mg/kg)?
Its Tmax is 6 h.

And the concentration at 1 h [1]?
The concentration at 1 h was 1.52 ng/mL.

And the concentration at 2 h [1]?
The concentration at 2 h was 2.41 ng/mL.

And the concentration at 4 h [1]?
Its concentration at 4 h is 4.91 ng/mL.

And the concentration at 6 h (plasma, single PO 1 mg/kg (HCl salt, as free base), 6 h, read-out: Mean Plasma Concentration)?
The concentration at 6 h was 9.37 ng/mL.

And the concentration at 8 h [1]?
Its concentration at 8 h is 6.42 ng/mL.

And the concentration at 12 h [1]?
Its concentration at 12 h is 4.64 ng/mL.

And the AUC(0-inf) (plasma, single PO 10 mg/kg)?
The AUC(0-inf) was 1080 ng·h/mL.

What about the Cmax (plasma, single PO 10 mg/kg) of the same compound?
Its Cmax is 90.4 ng/mL.

And the Tmax (plasma, single PO 10 mg/kg)?
The Tmax was 6 h.

What about the half-life (plasma, single PO 10 mg/kg) of the same compound?
Its half-life is 7.54 h.

And the concentration at 1 h [2]?
The concentration at 1 h was 8.45 ng/mL.

What about the concentration at 2 h [2] of the same compound?
Its concentration at 2 h is 25.9 ng/mL.

What about the concentration at 4 h [2] of the same compound?
Its concentration at 4 h is 51.6 ng/mL.

And the concentration at 6 h (plasma, single PO 10 mg/kg (HCl salt, as free base), 6 h, read-out: Mean Plasma Concentration)?
Its concentration at 6 h is 90.4 ng/mL.

What about the concentration at 8 h [2] of the same compound?
The concentration at 8 h was 52.5 ng/mL.

And the concentration at 12 h [2]?
The concentration at 12 h was 46.3 ng/mL.

What about the concentration at 24 h (plasma, single PO 10 mg/kg (HCl salt, as free base), 24 h) of the same compound?
The concentration at 24 h was 12.9 ng/mL.

What about the AUC(0-inf) (plasma, single PO 30 mg/kg) of the same compound?
The AUC(0-inf) was 3870 ng·h/mL.

And the Cmax (plasma, single PO 30 mg/kg)?
The Cmax was 180 ng/mL.

And the Tmax (plasma, single PO 30 mg/kg)?
Its Tmax is 6 h.

What about the half-life (plasma, single PO 30 mg/kg) of the same compound?
The half-life was 13.4 h.

And the concentration at 1 h [3]?
The concentration at 1 h was 43.2 ng/mL.

And the concentration at 2 h [3]?
The concentration at 2 h was 73.1 ng/mL.

What about the concentration at 4 h [3] of the same compound?
The concentration at 4 h was 136 ng/mL.

What about the concentration at 6 h (plasma, single PO 30 mg/kg (HCl salt, as free base), 6 h, read-out: Mean Plasma Concentration) of the same compound?
Its concentration at 6 h is 180 ng/mL.

What about the concentration at 8 h [3] of the same compound?
The concentration at 8 h was 155 ng/mL.

And the concentration at 12 h [3]?
Its concentration at 12 h is 117 ng/mL.

What about the concentration at 24 h (plasma, single PO 30 mg/kg (HCl salt, as free base), 24 h) of the same compound?
Its concentration at 24 h is 66.4 ng/mL.

What about the Cmax (plasma, single PO 100 mg/kg) of the same compound?
Its Cmax is 243 ng/mL.

And the Tmax (plasma, single PO 100 mg/kg)?
The Tmax was 6 h.

And the concentration at 1 h [4]?
The concentration at 1 h was 81.2 ng/mL.

What about the concentration at 2 h [4] of the same compound?
The concentration at 2 h was 142 ng/mL.

And the concentration at 4 h [4]?
The concentration at 4 h was 151 ng/mL.

What about the concentration at 6 h (plasma, single PO 100 mg/kg (HCl salt, as free base), 6 h, read-out: Mean Plasma Concentration) of the same compound?
The concentration at 6 h was 243 ng/mL.

What about the concentration at 8 h [4] of the same compound?
Its concentration at 8 h is 170 ng/mL.

And the concentration at 12 h [4]?
Its concentration at 12 h is 193 ng/mL.

And the concentration at 24 h (plasma, single PO 100 mg/kg (HCl salt, as free base), 24 h)?
The concentration at 24 h was 224 ng/mL.

And the “Mean Plasma Concentration” value (single PO 1 mg/kg (HCl salt, as free base), 24 h)?
The value was “BQL”.
